{"source": "paper PMC8298264", "about": "“Function of cofactor Akirin2 in the regulation of gene expression in model human neutrophil-like HL60 cells” (Bioscience Reports, 2021)", "tested_on": "human HL60 cells", "assay": "SWATH-MS proteomics, differential protein representation, akirin2 KO vs WT HL60 cells", "type": "cell-based", "method": "Total proteins were extracted from WT and akirin2 KO HL60 cells using the AllPrep DNA/RNA/Protein Mini Kit (Qiagen) and protein concentration was determined using the BCA Protein Assay with BSA (Sigma–Aldrich) as standard. Protein extracts (150 µg per sample, n=3 biological replicates) from each WT and KO cells were trypsin digested using the FASP Protein Digestion Kit (Expedeon Ltd., Abcam, Cambridge, U.K.) and sequencing grade trypsin (Promega, Madison, WI, U.S.A.) following manufacturer’s recommendations. The resulting peptides were finally desalted on to OMIX Pipette tips C18 (Agilent Technologies, Santa Clara, CA, U.S.A.), dried down and stored at −20 °C until mass spectrometry analysis. […] Three micrograms of each protein digest from the three biological replicates of WT and akirin2 KO HL60 cells were used for the generation of the reference spectral ion library as part of the SWATH-MS analysis.\nPeptides were eluted in a 120-min gradient from 5 to 30% solvent B in solvent A followed by 15-min gradient from 30 to 60% solvent B in solvent A (solvent A: 0.1% formic acid in water, solvent B: 0.1% formic acid in acetonitrile) and directly injected into the mass spectrometer for analysis. For IDA experiments, the mass spectrometer was set to scanning full spectra (350–1400 m/z) using 250 ms accumulation time per spectrum, followed by up to 50 MS/MS scans (100–1500 m/z). Candidate ions with a charge state between +2 and +5 counts per second above a minimum threshold of 100 were isolated for fragmentation. One MS/MS spectrum was collected for 100 ms, before adding those precursor ions to the exclusion list for 15 s (mass spectrometer operated by Analyst TF 1.6, AB Sciex). Dynamic background subtraction was turned off. MS/MS analyses were recorded in high-sensitivity mode with rolling collision energy on and a collision energy spread of 5. For SWATH quantitative analysis, six independent samples (three replicates from WT and akirin2 KO HL60 cells, 5 µg each) were subjected to the cyclic DIA of mass spectra using the SWATH variable windows calculator (V 1.0, AB Sciex) and the SWATH acquisition method editor (AB Sciex), similar to established methods. […] For these experiments, a 50-ms survey scan (350–1400 m/z) was acquired at the beginning of each cycle, and SWATH–MS/MS spectra were collected from 100–1500 m/z for 70 ms at high-sensitivity mode, resulting in a cycle time of 3.6 s. Collision energy for each window was determined according to the calculation for a charge +2 ion-centered upon the window with a collision energy spread of 15. To create a spectral library of all the detectable peptides in the samples, the IDA MS raw files were combined and subjected to database search in unison using ProteinPilot software v. 5.0.1 (AB Sciex) with the Paragon algorithm. […] The detected protein threshold was set at 0.05. An independent false discovery rate (FDR) analysis, using the target–decoy approach provided by Protein Pilot (AB Sciex; https://sciex.com/products/software/proteinpilot-software), was used to assess the quality of identifications. Positive identifications were considered when identified proteins reached 1% of global FDR. […] Global normalization was performed according to the Total Area Sums (TAS) of all detected proteins in the samples. […] Heatmaps were prepared using the Heatmapper (http://www.heatmapper.ca/expression/) with average linkage and Euclidean distance measurement method.", "key": {"[1]": {"settings": "SWATH-MS, akirin2 KO vs WT HL60 cells, over-represented in KO"}, "[2]": {"settings": "akirin2 KO vs WT HL60 cells, sheet \"Over-represented in KO\""}, "[3]": {"settings": "SWATH-MS, akirin2 KO vs WT HL60 cells, under-represented in KO"}, "[4]": {"settings": "KO vs WT, akirin2 KO vs WT HL60 cells, sheet \"Under-represented in KO\""}, "[5]": {"settings": "akirin2 KO vs WT HL60 cells, sheet \"Under-represented in KO\""}, "[6]": {"settings": "SWATH-MS, akirin2 KO vs WT HL60 cells, sheet \"Under-represented in KO\""}, "[7]": {"settings": "KO vs WT HL60 cells, sheet \"Under-represented in KO\""}, "[8]": {"settings": "Over-represented in KO, KO vs WT HL60 cells"}}, "data": [{"substance": "CD44 antigen", "values": [{"measurement": "Fold Change", "setting": "[1]", "value": 2.131}, {"measurement": "Log (Fold Change)", "setting": "[1]", "value": 0.3287}]}, {"substance": "Cathepsin D", "values": [{"measurement": "Fold Change", "setting": "[1]", "value": 2.358}, {"measurement": "Log (Fold Change)", "setting": "[1]", "value": 0.3725}]}, {"substance": "Chitinase-3-like protein 1", "values": [{"measurement": "Fold Change", "setting": "[1]", "value": 1.904}, {"measurement": "Log (Fold Change)", "setting": "[1]", "value": 0.2797}]}, {"substance": "Deoxynucleoside triphosphate triphosphohydrolase SAMHD1", "values": [{"measurement": "Fold Change", "setting": "[1]", "value": 1.851}, {"measurement": "Log (Fold Change)", "setting": "[1]", "value": 0.2674}]}, {"substance": "Eosinophil peroxidase", "values": [{"measurement": "Fold Change", "setting": "[1]", "value": 5.162}, {"measurement": "Log (Fold Change)", "setting": "[1]", "value": 0.7128}]}, {"substance": "Galectin-1", "values": [{"measurement": "Fold Change", "setting": "[1]", "value": 1.707}, {"measurement": "Log (Fold Change)", "setting": "[1]", "value": 0.2322}]}, {"substance": "Galectin-10", "values": [{"measurement": "Fold Change", "setting": "[1]", "value": 4.451}, {"measurement": "Log (Fold Change)", "setting": "[1]", "value": 0.6485}]}, {"substance": "Heat shock 70 kDa protein 1B", "values": [{"measurement": "Fold Change", "setting": "[1]", "value": 1.868}, {"measurement": "Log (Fold Change)", "setting": "[1]", "value": 0.2713}]}, {"substance": "Transferrin receptor protein 1", "values": [{"measurement": "Fold Change", "setting": "[1]", "value": 3.145}, {"measurement": "Log (Fold Change)", "setting": "[1]", "value": 0.4976}]}, {"substance": "Vimentin", "values": [{"measurement": "Fold Change", "setting": "[1]", "value": 3.958}, {"measurement": "Log (Fold Change)", "setting": "[1]", "value": 0.5975}]}, {"substance": "sp¦E9PAV3¦NACAM_HUMAN", "values": [{"measurement": "Fold Change", "setting": "[2]", "value": 1.243}, {"measurement": "Log (Fold Change)", "setting": "[2]", "value": 0.09445}]}, {"substance": "sp¦E9PRG8¦CK098_HUMAN", "values": [{"measurement": "Fold Change", "setting": "[2]", "value": 1.224}, {"measurement": "Log (Fold Change)", "setting": "[2]", "value": 0.0879}]}, {"substance": "sp¦O00148¦DX39A_HUMAN", "values": [{"measurement": "Fold Change", "setting": "[3]", "value": 0.7315}, {"measurement": "Log (Fold Change)", "setting": "[3]", "value": -0.1358}]}, {"substance": "sp¦O00231¦PSD11_HUMAN", "values": [{"measurement": "Fold Change", "setting": "[2]", "value": 1.117}, {"measurement": "Log (Fold Change)", "setting": "[2]", "value": 0.04806}]}, {"substance": "sp¦O00264¦PGRC1_HUMAN", "values": [{"measurement": "Fold Change", "setting": "[4]", "value": 0.6168}, {"measurement": "Log (Fold Change)", "setting": "[4]", "value": -0.2099}]}, {"substance": "sp¦O14579¦COPE_HUMAN", "values": [{"measurement": "Fold Change", "setting": "[2]", "value": 1.2285}, {"measurement": "Log (Fold Change)", "setting": "[2]", "value": 0.08937}]}, {"substance": "sp¦O43148¦MCES_HUMAN", "values": [{"measurement": "Fold Change", "setting": "[5]", "value": 0.671}, {"measurement": "Log (Fold Change)", "setting": "[5]", "value": -0.1733}]}, {"substance": "sp¦O43447¦PPIH_HUMAN", "values": [{"measurement": "Fold Change", "setting": "[2]", "value": 1.22}, {"measurement": "Log (Fold Change)", "setting": "[2]", "value": 0.08634}]}, {"substance": "sp¦O43681¦GET3_HUMAN", "values": [{"measurement": "Fold Change", "setting": "[6]", "value": 0.7665}, {"measurement": "Log (Fold Change)", "setting": "[6]", "value": -0.1155}]}, {"substance": "sp¦O43813¦LANC1_HUMAN", "values": [{"measurement": "Fold Change", "setting": "[3]", "value": 0.7366}, {"measurement": "Log (Fold Change)", "setting": "[3]", "value": -0.1328}]}, {"substance": "sp¦O75874¦IDHC_HUMAN", "values": [{"measurement": "Fold Change", "setting": "[1]", "value": 1.681}, {"measurement": "Log (Fold Change)", "setting": "[1]", "value": 0.2255}]}, {"substance": "sp¦O94804¦STK10_HUMAN", "values": [{"measurement": "Fold Change", "setting": "[7]", "value": 0.5498}, {"measurement": "Log (Fold Change)", "setting": "[7]", "value": -0.2598}]}, {"substance": "sp¦O95758¦PTBP3_HUMAN", "values": [{"measurement": "Fold Change", "setting": "[3]", "value": 0.7281}, {"measurement": "Log (Fold Change)", "setting": "[3]", "value": -0.1378}]}, {"substance": "sp¦P0CG38¦POTEI_HUMAN", "values": [{"measurement": "Fold Change", "setting": "[6]", "value": 0.7517}, {"measurement": "Log (Fold Change)", "setting": "[6]", "value": -0.1239}]}, {"substance": "sp¦P00367¦DHE3_HUMAN", "values": [{"measurement": "Fold Change", "setting": "[5]", "value": 0.6801}, {"measurement": "Log (Fold Change)", "setting": "[5]", "value": -0.1674}]}, {"substance": "sp¦P02792¦FRIL_HUMAN", "values": [{"measurement": "Fold Change", "setting": "[5]", "value": 0.2798}, {"measurement": "Log (Fold Change)", "setting": "[5]", "value": -0.5531}]}, {"substance": "sp¦P04406¦G3P_HUMAN", "values": [{"measurement": "Fold Change", "setting": "[8]", "value": 1.369}, {"measurement": "Log (Fold Change)", "setting": "[8]", "value": 0.1364}]}, {"substance": "sp¦P05556¦ITB1_HUMAN", "values": [{"measurement": "Fold Change", "setting": "[5]", "value": 0.257}, {"measurement": "Log (Fold Change)", "setting": "[5]", "value": -0.5901}]}, {"substance": "sp¦P07237¦PDIA1_HUMAN", "values": [{"measurement": "Fold Change", "setting": "[8]", "value": 1.346}, {"measurement": "Log (Fold Change)", "setting": "[8]", "value": 0.1292}]}, {"substance": "sp¦P08238¦HS90B_HUMAN", "values": [{"measurement": "Fold Change", "setting": "[2]", "value": 1.209}, {"measurement": "Log (Fold Change)", "setting": "[2]", "value": 0.08231}]}, {"substance": "sp¦P08621¦RU17_HUMAN", "values": [{"measurement": "Fold Change", "setting": "[5]", "value": 0.6829}, {"measurement": "Log (Fold Change)", "setting": "[5]", "value": -0.1657}]}, {"substance": "sp¦P09622¦DLDH_HUMAN", "values": [{"measurement": "Fold Change", "setting": "[7]", "value": 0.516}, {"measurement": "Log (Fold Change)", "setting": "[7]", "value": -0.2873}]}, {"substance": "sp¦P10155¦RO60_HUMAN", "values": [{"measurement": "Fold Change", "setting": "[6]", "value": 0.7678}, {"measurement": "Log (Fold Change)", "setting": "[6]", "value": -0.1147}]}, {"substance": "sp¦P11142¦HSP7C_HUMAN", "values": [{"measurement": "Fold Change", "setting": "[1]", "value": 1.579}, {"measurement": "Log (Fold Change)", "setting": "[1]", "value": 0.1983}]}, {"substance": "sp¦P12268¦IMDH2_HUMAN", "values": [{"measurement": "Fold Change", "setting": "[3]", "value": 0.7306}, {"measurement": "Log (Fold Change)", "setting": "[3]", "value": -0.1363}]}, {"substance": "sp¦P12270¦TPR_HUMAN", "values": [{"measurement": "Fold Change", "setting": "[5]", "value": 0.6414}, {"measurement": "Log (Fold Change)", "setting": "[5]", "value": -0.1929}]}, {"substance": "sp¦P13861¦KAP2_HUMAN", "values": [{"measurement": "Fold Change", "setting": "[2]", "value": 1.201}, {"measurement": "Log (Fold Change)", "setting": "[2]", "value": 0.07946}]}, {"substance": "sp¦P14618¦KPYM_HUMAN", "values": [{"measurement": "Fold Change", "setting": "[1]", "value": 1.553}, {"measurement": "Log (Fold Change)", "setting": "[1]", "value": 0.1913}]}, {"substance": "sp¦P15531¦NDKA_HUMAN", "values": [{"measurement": "Fold Change", "setting": "[2]", "value": 1.204}, {"measurement": "Log (Fold Change)", "setting": "[2]", "value": 0.08072}]}]}
